Results reported in patent US20240374626A1, “METHODS OF ENHANCING MILK PRODUCTION IN LACTATING MAMMALIAN SUBJECTS” (priority 2023, published 2024).

Experiments:
[1] = test system: HC11 cells; assay: Visualization of FACS-purified HC11 subpopulations sorted on DNA content (nuclei number); format: cell-based, mouse; details: HC11, doxorubicin 50 nM, FACS-purified population
Procedure: (§1) […] Drugs were maintained through the differentiation process and added with every change of media.
Mammary gland CK8+ epithelial cells or HC11 were sorted based on DNA content using BD FACS Aria II Cell Sorter. After sorting, cells were stained in suspension using Phalloidin-iFluor 488 Reagent (Abcam, ab176753) for 30 min at room temperature in darkness. Cells were spined down onto microscopy slides (Fisher, 12-550-15) using Cytospin 2 (Shandon, 599X52) at 500 rpm for 3 min. Cells were mounted using fluoromount-G (Southern Biotech, 0100-01) and visualized using Zeiss Axio Imager Microscope.

[2] = test system: γH2AX; assay: γH2AX immunofluorescence on HC11 cells; format: cell-based, mouse; details: HC11, doxorubicin 50 nM, 24 h post-treatment
Procedure: as §1
HC11 cells were fixed using ice-cold MeOH for 10 min. After washing with 1×PBS, cells were incubated for 1 h at room temperature with primary antibodies [anti-γH2AX (SCBT, sc-517348), anti-pATR (Genetex, GTX128145), anti-PLIN2 (generously provided by Jim McManaman)] in a humid incubation chamber. After incubation, cells were washed three times using 1×PBS and incubated for 1 h at room temperature in darkness using corresponding Alexa Fluor AffiniPure secondary antibodies (Jackson ImmunoResearch) and Phalloidin-iFluor 488 Reagent (Abcam, ab176753) when indicated. Cells were washed three times using 1×PBS and incubated with Hoechst 33342 (AnaSpec, AS-83218) for 10 min. Cells were mounted using fluoromount-G (Southern Biotech, 0100-01) and visualized using Zeiss Axio Imager Microscope. Integrated density of PLIN2, nuclear γH2AX and nuclear pATR was quantify using ImageJ.

[3] = test system: CK8+ luminal cells; assay: Contralateral intraductal injection: FACS DNA content analysis of CK8+ luminal cells; format: in vivo, mouse
Procedure: Nulliparous analysis was performed using adult (10-12-week-old) female mice. For timed pregnancies and lactation analysis, CD-1 pregnant adult females were obtained from Charles Rivers. Embryos were examined at the time of mammary gland harvesting to confirm pregnancy state. […] Plugged mice were considered to be PD0.5 on the day of the observed plug. All females used in this study were age matched. Mice were anesthetized with isoflurane (VetOne, 501017) Prior to intraductal injections, hair was removed from around the nipples using Nair hair remover. Injections into the duct of the nipple were performed with 33 G needles (Hamilton, 7803-05) and a volume of 40 μl per gland. Right inguinal, abdominal and thoracic glands were injected with doxorubicin (1.5 μg per gland, Cayman Chemical, 15007), nucleosides (40 μl per gland, Millipore-Sigma, ES-008-D) or Mk-1775 (50 μg per gland, Cayman Chemical, 21266), and left glands were injected with PBS or DMSO (Thermo Scientific, BP231) diluted in PBS. Mechanically dissociated inguinal, abdominal, and thoracic mammary fat pads were prepared into cell suspension for flow cytometry or fluorescence-activated cell sorting (FACS). The lymph node was removed from abdominal glands. Glands were chopped using a mechanical tissue chopper and digested for 1 h at 37° C. in digestion media [RPM1 containing 1% FBS, collagenase IA (Sigma, C9891), hyaluronidase (Sigma, H3506) and DNAse I (Worthington, LS002007)]. […] Tissue was further digested using pre-warmed 0.25% Trypsin-EDTA (Thermo Fisher, 25200056), washed, and digested with 5 mg/ml of pre-warmed dispase II (Roche, 4942078001). Red blood cells were lysed using Ammonium Chloride Solution (Stem Cell Technologies, 07850). Cells were washed, resuspended and filter through a 70 μm cell strainer (Falcon, 08-771-2) and processed for downstream applications. For DNA content analysis of the mammary gland CK8^+ epithelial population, mammary gland cells suspension was obtained as described above. Cells were fixed in ice-cold 70% EtOH at a final concentration of 10^6 cells/ml. During fixation, cells were vigorously vortexed for 1 min to avoid the formation of cell aggregates. Cells were washed twice with washing buffer [1×PBS containing 5% FBS and 0.5% tween 20 (Fisher Chemical, BP337500)] and centrifuged at 2,000 rpm for 5 min at 4° C. Cell pellet was incubated for 1 h at room temperature with anti-CK8 (Developmental Studies Hybridoma Lab, TROMA-1), anti-GFP (Thermo Fisher, A01704) or corresponding rat (Thermo-Fisher, 10700) or rabbit (Thermo-Fisher, 10500C) IgG isotype controls. Cells were washed twice and incubated for 1 h at room temperature in darkness with FITC anti-Rat (Thermo Fisher, A24544) or FITC anti-Rabbit (Thermo Fisher, A16030) and APC anti-Rat (Jackson ImmunoResearch, 712-136-153). Cells were washed twice and resuspended in propidium iodide solution [1×PBS containing 25 μg/ml of propidium iodide (Thermo Fisher, P3566) and 100 μg/ml of RNAse (Thermo Fisher, 12091021)]. For DNA content analysis on HC11, cells were washed with 1×DPBS (GIBCO, 14190-250) and harvested using 0.05% Trypsin-EDTA (GIBCO, 25300-062). Cell suspension was washed with 1×DPBS and centrifuged at 1,000 rpm for 5 min at 4° C. Cell pellet was fixed in ice-cold 70% EtOH and then vortexed vigorously to avoid cell aggregates. After fixation, cells were washed with washing buffer [1×PBS (GIBCO, 14190136) supplemented with 5% FBS] and centrifuged at 2,000 rpm for 5 min at 4° C. The pellet was resuspended in propidium iodide solution. Cell suspensions were filtered through a 70 μm cell strainer (Falcon, 08-771-2) and analyzed using a BD LSRII cytometer or a BD FACS Aria II Cell Sorter. Populations were analyzed using FlowJo.

[4] = doxorubicin IDI at PD12.5 vs contralateral DMSO, MGs at PD17.5
[5] = Mk-1775 IDI at PD16.5 vs contralateral DMSO, by LD5

`COc1cccc2c1C(=O)c1c(O)c3c(c(O)c1C2=O)C[C@@](O)(C(=O)CO)C[C@@H]3O[C@H]1C[C@H](N)[C@H](O)[C@H](C)O1` [doxorubicin] was tested, and the “nuclei number of polyploid cells generated” value [1] was “generated both mono- and binucleated polyploid cells”, the γH2AX [2] was “increase” and the “decrease in 2C luminal population (in the overall population)” value [3, 4] was 5.23%. For the same compound, the “increase in 4C luminal population (in the overall population)” value [3, 4] was 14.86% and the “increase in >4C luminal population (in the overall population)” value [3, 4] was 47.1%.
In the case of `C=CCn1c(=O)c2cnc(Nc3ccc(N4CCN(C)CC4)cc3)nc2n1-c1cccc(C(C)(C)O)n1` [Mk-1775], the “decrease in 4C CK8+ population (in the overall population)” value ([3]; Mk-1775 IDI (50 μg per gland) at PD16.5 vs contralateral DMSO, at LD2) is reported as 19.4%, the “increase in 2C CK8+ population (in the overall population)” value ([3]; Mk-1775 IDI at PD16.5 vs contralateral DMSO, LD2) is reported as 7.7% and the “increase in 2C CK8+ population (in the overall population)” value ([3]; Mk-1775 IDI at PD16.5 vs contralateral DMSO, LD5) is reported as 12.4%. For the same compound, the “decrease in 4C CK8+ population (in the overall population)” value [3, 5] was 3.2% and the “decrease in >4C CK8+ population (in the overall population)” value [3, 5] was 16.31%.
